The values that follow come from US4925867A, “Hydrocarbon substituted pyrrolidinones, intermediates therefor, and anti-convulsant use thereof” (Merck Sharp & Dohme Ltd., priority 1988, dated 1990).

The subject of test [1] is NMDA-induced excitation. To be noted: Evans et al., Brain Research, 1978, 148, 536-542; cited from earlier work.
The subject of test [2] is NMDA receptors. The experiment in a line: Cortical slice studies: antagonism of responses to NMDA in rat cortical slice. It is filed as cell-based. To be noted: from righthand shift in the NMDA concentration-response curve, read-out: apparent equilibrium constant (Kb). On the procedure: The compounds useful in this invention potently and selectively block responses to NMDA in a brain slice from rat cortex, inhibit glycine binding to the strychnine-insensitive site present on the NMDA receptor, and block the potentiation of NMDA responses by glycine in cultured cortical neurones.
The effects of compounds of the invention on responses to NMDA were assessed using the rat cortical slice as described by Wong et al., Proc. Natl. Acad. Sci. USA, 1986, 83, 7104. The apparent equilibrium constant (Kb) was calculated from the righthand shift in the NMDA concentration-response curve produced by the compound under test.

On to `NC1CCN(O)C1=O` (stereo not drawn) [HA-966, 3-amino-1-hydroxypyrrolidin-2-one], for which, in test [1], the “antagonism of NMDA-induced excitation (in words)” value was “able to antagonise selectively NMDA-induced excitation”.
Broadly, the Kb is the affinity of an antagonist, worked out from how it opposes an agonist. Take `C[C@@H]1CN(O)C(=O)[C@@H]1N` [Example 2, (3R,4R)-3-Amino-1-hydroxy-4-methylpyrrolidin-2-one]: the antagonist equilibrium constant (Kb) in test [2] was under 100 µM.
Still for that read-out and setting: in the case of `C[C@H]1CN(O)C(=O)[C@H]1N` (relative stereo) [Example 1, cis-3-Amino-1-hydroxy-4-methylpyrrolidin-2-one] it was under 100 µM.
